From patent US6914045B2, “Glycopeptide antibiotics” (Wyeth Holdings Corporation, priority 2001, dated 2005)
Converted amounts (≈) assume the structure as drawn.

Legend:
[1] = system: Streptococcus sp.; experiment: in vitro antibacterial evaluation, MIC by broth dilution; type: cell-based; settings: broth dilution, 18 hours at 35° C.
How it was run: (§1)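 MIC = lowest antibiotic concentration preventing visible growth; inoculum 5×10^5 CFU/mL; drug range 64-0.06 μg/mL; Muller-Hinton II […]; NCCLS M7-A2 guidance.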

[2] = system: Staphylococcus sp.; experiment: as above; type: cell-based; settings: broth dilution, 18 hours at 35° C.
How it was run: as §1

[3] = system: Enterococcus sp.; experiment: as above; type: cell-based; settings: broth dilution, 18 hours at 35° C.
How it was run: as §1

[4] = system: Escherichia coli; experiment: as above; type: cell-based; settings: 18 hours at 35° C.
How it was run: as §1

[5] = system: Enterococcus faecalis (GC 6189); experiment: acute lethal infection in mice; type: in vivo; settings: female CD-1 mice, intraperitoneal challenge, intravenous 30 min. after infection, 7 day survival
How it was run: (§2)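 Intraperitoneal challenge of female CD-1 mice with a bacterial dose lethal to untreated animals within 24-48 hr; single iv treatment 30 min later, 5 mice per dose level. Survival is scored at day 7 and pooled from three experiments to give the median effective dose.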

[6] = system: Staphylococcus aureus-SMITH (GC 4543); experiment: acute lethal infection in mice; type: in vivo; settings: acute lethal infection, female CD-1 mice, intraperitoneal challenge, intravenous 30 min. after infection, 7 day survival
How it was run: as §2

Structure (SMILES): CC(c1ccccc1)C1NC(=O)CNC(=O)C(CO)NC(=O)C(C(O)C2CNC(=N)N2C2OC(CO)C(O)C(O)C2O)NC(=O)C(C(O)C2CNC(=N)N2)NC(=O)C(Cc2ccc(OC3OC(CO)C(OC4OC5COC(CC6CCN(C(=O)OCc7ccccc7)CC6)OC5C(O)C4O)C(O)C3O)cc2)NC1=O (stereo not drawn) [Example 113, Cyclo[glycyl-β-methylphenylalanyl-O-[4-O-[4,6-O-[2-[1-[(phenylmethoxy)carbonyl]piperidin-4-yl]ethylidene]hexopyranosyl]hexopyranosyl]tyrosyl-3-(2-iminoimidazolidin-4-yl)seryl-3-(3-hexopyranosyl-2-iminoimidazolidin-4-yl)serylseryl]]
- MIC Streptococcus agalactiae (GC 4564) ([1]; Streptococcus agalactiae (GC 4564)): 0.12 µg/mL (≈ 0.078 µM)
- MIC Streptococcus pneumoniae (ATCC 6301) ([1]; Streptococcus pneumoniae (ATCC 6301)): <0.06 µg/mL
- MIC Streptococcus pneumoniae (GC 1894) ([1]; Streptococcus pneumoniae (GC 1894)): <0.06 µg/mL
- MIC Streptococcus pneumoniae (GC 4565) ([1]; Streptococcus pneumoniae (GC 4565)): <0.06 µg/mL
- MIC Streptococcus pyogenes (GC 4563) ([1]; Streptococcus pyogenes (GC 4563)): <0.06 µg/mL
- MIC Streptococcus pneumoniae (ATCC 6301) ([1]; strain ATCC 6301): <0.06 µg/mL
- MIC Streptococcus pneumoniae (GC 1894) ([1]; strain GC 1894): <0.06 µg/mL
- MIC Streptococcus pyogenes (GC 4563) ([1]; strain GC 4563): <0.06 µg/mL
- MIC Streptococcus agalactiae (GC 4564) ([1]; strain GC 4564): 0.12 µg/mL (≈ 0.078 µM)
- MIC Streptococcus pneumoniae (GC 4565) ([1]; strain GC 4565): <0.06 µg/mL
- MIC Coagulase Negative Staphylococcus (GC 4547) [2]: 1 µg/mL (≈ 0.65 µM)
- MIC Coagulase Negative Staphylococcus (GC 4548) [2]: 0.5 µg/mL (≈ 0.325 µM)
- MIC Coagulase Negative Staphylococcus (GC 4549) [2]: 1 µg/mL (≈ 0.65 µM)
- MIC Coagulase Negative Staphylococcus (GC 4551) [2]: 1 µg/mL (≈ 0.65 µM)
- MIC Coagulase Negative Staphylococcus (GC 6257) [2]: 0.5 µg/mL (≈ 0.325 µM)
- MIC Staphylococcus aureus (ATCC 29213) [2]: 1 µg/mL (≈ 0.65 µM)
- MIC Staphylococcus aureus (GC 1131) [2]: 2 µg/mL (≈ 1.3 µM)
- MIC Staphylococcus aureus (GC 3051) [2]: 1 µg/mL (≈ 0.65 µM)
- MIC Staphylococcus aureus (GC 3053) [2]: 1 µg/mL (≈ 0.65 µM)
- MIC Staphylococcus aureus (GC 4541) [2]: 1 µg/mL (≈ 0.65 µM)
- MIC Staphylococcus aureus (GC 4542) [2]: 1 µg/mL (≈ 0.65 µM)
- MIC Staphylococcus aureus (GC 4544) [2]: 2 µg/mL (≈ 1.3 µM)
- MIC Staphylococcus aureus (GC 4545) [2]: 1 µg/mL (≈ 0.65 µM)
- MIC Staphylococcus aureus-SMITH (GC 4543) [2]: 1 µg/mL (≈ 0.65 µM)
- MIC Staphylococcus haemolyticus (GC 4546) [2]: 1 µg/mL (≈ 0.65 µM)
- MIC Staphylococcus aureus (GC 1131) ([2]; inoculum 5×10^5 CFU/mL, strain GC 1131): 2 µg/mL (≈ 1.3 µM)
- MIC Staphylococcus aureus (ATCC 29213) ([2]; strain ATCC 29213): 1 µg/mL (≈ 0.65 µM)
- MIC Staphylococcus aureus (GC 3051) ([2]; strain GC 3051): 1 µg/mL (≈ 0.65 µM)
- MIC Staphylococcus aureus (GC 3053) ([2]; strain GC 3053): 1 µg/mL (≈ 0.65 µM)
- MIC Staphylococcus aureus (GC 4541) ([2]; strain GC 4541): 1 µg/mL (≈ 0.65 µM)
- MIC Staphylococcus aureus (GC 4542) ([2]; strain GC 4542): 1 µg/mL (≈ 0.65 µM)
- MIC Staphylococcus aureus (GC 4544) ([2]; strain GC 4544): 2 µg/mL (≈ 1.3 µM)
- MIC Staphylococcus aureus (GC 4545) ([2]; strain GC 4545): 1 µg/mL (≈ 0.65 µM)
- MIC Staphylococcus haemolyticus (GC 4546) ([2]; strain GC 4546): 1 µg/mL (≈ 0.65 µM)
- MIC Coagulase Negative Staphylococcus (GC 4547) ([2]; strain GC 4547): 1 µg/mL (≈ 0.65 µM)
- MIC Coagulase Negative Staphylococcus (GC 4548) ([2]; strain GC 4548): 0.5 µg/mL (≈ 0.325 µM)
- MIC Coagulase Negative Staphylococcus (GC 4549) ([2]; strain GC 4549): 1 µg/mL (≈ 0.65 µM)
- MIC Coagulase Negative Staphylococcus (GC 4551) ([2]; strain GC 4551): 1 µg/mL (≈ 0.65 µM)
- MIC Coagulase Negative Staphylococcus (GC 6257) ([2]; strain GC 6257): 0.5 µg/mL (≈ 0.325 µM)
- MIC Staphylococcus aureus-SMITH (GC 4543) ([2]; strain SMITH GC 4543): 1 µg/mL (≈ 0.65 µM)
- MIC Enterococcus avium (GC 4558) ([3]; Enterococcus avium (GC 4558)): 2 µg/mL (≈ 1.3 µM)
- MIC Enterococcus faecalis (ATCC 29212) ([3]; Enterococcus faecalis (ATCC 29212)): 2 µg/mL (≈ 1.3 µM)
- MIC Enterococcus faecalis (GC 2242) ([3]; Enterococcus faecalis (GC 2242)): 4 µg/mL (≈ 2.6 µM)
- MIC Enterococcus faecalis (GC 2691) ([3]; Enterococcus faecalis (GC 2691)): 4 µg/mL (≈ 2.6 µM)
- MIC Enterococcus faecalis (GC 3059) ([3]; Enterococcus faecalis (GC 3059)): 2 µg/mL (≈ 1.3 µM)
- MIC Enterococcus faecalis (GC 4552) ([3]; Enterococcus faecalis (GC 4552)): 2 µg/mL (≈ 1.3 µM)
- MIC Enterococcus faecalis (GC 4553) ([3]; Enterococcus faecalis (GC 4553)): 2 µg/mL (≈ 1.3 µM)
- MIC Enterococcus faecalis (GC 4554) ([3]; Enterococcus faecalis (GC 4554)): 2 µg/mL (≈ 1.3 µM)
- MIC Enterococcus faecalis (GC 6189) ([3]; Enterococcus faecalis (GC 6189)): 2 µg/mL (≈ 1.3 µM)
- MIC Enterococcus faecium (GC 2243) ([3]; Enterococcus faecium (GC 2243)): 2 µg/mL (≈ 1.3 µM)
- MIC Enterococcus faecium (GC 4556) ([3]; Enterococcus faecium (GC 4556)): 2 µg/mL (≈ 1.3 µM)
- MIC Enterococcus faecium (GC 4557) ([3]; Enterococcus faecium (GC 4557)): 2 µg/mL (≈ 1.3 µM)
- MIC Enterococcus faecalis (ATCC 29212) ([3]; strain ATCC 29212): 2 µg/mL (≈ 1.3 µM)
- MIC Enterococcus faecalis (GC 2242) ([3]; strain GC 2242): 4 µg/mL (≈ 2.6 µM)
- MIC Enterococcus faecium (GC 2243) ([3]; strain GC 2243): 2 µg/mL (≈ 1.3 µM)
- MIC Enterococcus faecalis (GC 2691) ([3]; strain GC 2691): 4 µg/mL (≈ 2.6 µM)
- MIC Enterococcus faecalis (GC 3059) ([3]; strain GC 3059): 2 µg/mL (≈ 1.3 µM)
- MIC Enterococcus faecalis (GC 4552) ([3]; strain GC 4552): 2 µg/mL (≈ 1.3 µM)
- MIC Enterococcus faecalis (GC 4553) ([3]; strain GC 4553): 2 µg/mL (≈ 1.3 µM)
- MIC Enterococcus faecalis (GC 4554) ([3]; strain GC 4554): 2 µg/mL (≈ 1.3 µM)
- MIC Enterococcus faecium (GC 4556) ([3]; strain GC 4556): 2 µg/mL (≈ 1.3 µM)
- MIC Enterococcus faecium (GC 4557) ([3]; strain GC 4557): 2 µg/mL (≈ 1.3 µM)
- MIC Enterococcus avium (GC 4558) ([3]; strain GC 4558): 2 µg/mL (≈ 1.3 µM)
- MIC Enterococcus faecalis (GC 6189) ([3]; strain GC 6189): 2 µg/mL (≈ 1.3 µM)
- MIC Escherichia coli (ATCC 25922) ([4]; strain ATCC 25922): 32 µg/mL (≈ 20.8 µM)
- MIC Escherichia coli (GC 4559) ([4]; strain GC 4559): 32 µg/mL (≈ 20.8 µM)
- MIC Escherichia coli (GC 4560) ([4]; strain GC 4560): 1 µg/mL (≈ 0.65 µM)
- median effective dose (ED50), Enterococcus faecalis (GC 6189) [5]: 1.04 mg/kg
- median effective dose (ED50), Staphylococcus aureus-SMITH (GC 4543) [6]: 0.26 mg/kg
